Laboratory results published in patent US20240067693A1, “POLYPEPTIDES AND USES THEREOF” (MEDIMMUNE LIMITED, priority 2020, published 2024).
Numbered stars: 1 amine (or outer) side, 2 acyl side, 3 side chain; on linkers, the order of the positions; unused ones are H or OH. Bridge positions count the residues as written; N and C are the ends. Square brackets hold non-standard residues; d marks the D form. Side chains are listed from the residue outwards. Peptide text beside a SMILES is read from it. * marks the point of attachment. C18 diacid = O=C(O)CCCCCCCCCCCCCCCCC(=O)*; γGlu = O=C(O)[C@H](CCC(=O)[*:2])N[*:1]; Aib = CC(C)(N)C(=O)O

What was measured:
[1] = molecular target: T1, human amylin receptor (calcitonin receptor co-expressed with receptor activity modifying protein, RAMP3) (hAMYR3) (Homo sapiens, UniProt O60896+P30988); assay: cAMP production in 1321N1 cells with stable recombinant expression of human amylin receptor (hAMYR3); assay type: cell-based; conditions: for Ratio (selectivity hAMYR vs hCTR, ratio of EC50 values at the two receptors): EC50 hCTR / EC50 hAMYR3; for EC50: cAMP, 1321N1 cells, assay buffer with 0.1% BSA, read-out: EC50 (pM) hAMYR3
T1 construct: expressed in transfected cells
T1 sequence (P30988 25-474): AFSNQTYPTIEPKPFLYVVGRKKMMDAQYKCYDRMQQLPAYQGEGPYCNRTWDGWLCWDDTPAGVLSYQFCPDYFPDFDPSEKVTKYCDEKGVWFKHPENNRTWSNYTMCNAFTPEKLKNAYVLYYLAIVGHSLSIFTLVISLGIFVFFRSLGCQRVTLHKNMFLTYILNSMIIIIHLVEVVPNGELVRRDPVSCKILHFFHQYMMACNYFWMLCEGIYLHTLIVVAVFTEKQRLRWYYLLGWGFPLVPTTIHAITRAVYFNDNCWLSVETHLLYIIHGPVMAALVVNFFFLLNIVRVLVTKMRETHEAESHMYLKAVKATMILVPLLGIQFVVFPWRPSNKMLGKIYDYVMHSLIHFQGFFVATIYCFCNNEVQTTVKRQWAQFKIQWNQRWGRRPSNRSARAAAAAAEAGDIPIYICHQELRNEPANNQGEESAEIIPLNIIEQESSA
T1 sequence (O60896 24-148 partner): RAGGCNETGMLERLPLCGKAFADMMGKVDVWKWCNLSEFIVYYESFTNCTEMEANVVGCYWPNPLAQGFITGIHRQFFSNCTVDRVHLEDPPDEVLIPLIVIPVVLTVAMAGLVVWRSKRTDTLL
In short: (§1)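 EC50 values come from 4-parameter logistic fits of HTRF cAMP signal, normalised to maximal calcitonin or amylin effect. Peptides were tested in duplicate for 30 min at RT in IBMX-containing (0.5 mM) BSA/HEPES buffer pH 7.4 on stable 1321N1 (human CTR, AMYR3) or HEK (rat CTR, AMYR3) lines.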

[2] = Pharmacokinetic determination via IV and SC administration in Sprague Dawley rats; conditions: male, rat, plasma, 20 nmol/kg
lean rats = assay: Rat acute food intake study; assay type: in vivo; conditions: lean male Sprague Dawley rats, 20 nmol/kg subcutaneously
Protocol: Male Sprague Dawley rats were obtained from Taconic Denmark, ApS at approximately 7 weeks of age. Rats were implanted with a microchip for identification, housed 4/cage with enrichment, free access to food and water, and allowed one week acclimatisation while non-invasive characterization was performed. Rats were on a 12:12 light:dark cycle that switches at 1pm:1am. Food intake was monitored via the HM2 system (Lafayette Instrument) that allows for monitoring in a home cage. As each rat enters an access tunnel to feed, an IR beam is broken, and the implanted microchip is read. Resulting changes to food weight is then assigned to the specific animal. Social order has shown no impact to overall feeding patterns and amounts.
Rats were sorted into groups based on Day -1 body weight and 24-hour accumulated food intake (n=7 per group). On Day 0 rats were weighed, then fasted for 6 hours. Thirty (30) minutes prior to the reintroduction of food, rats were dosed subcutaneously (5 mL/kg) with 20 nmol/kg of test compound or 60 nmol/kg peptide 1 (pramlintide) diluted in an appropriate vehicle, after which food was returned, and lights went out. Automated food intake was monitored for the following 3 days, and rats were weighed once per day.
Food intake per rat was batched into 1-hour intervals and integrated into Gubra's GubraView data management system. Discrete food intake data was exported into MS Excel from which cumulative food intake data was generated. Cumulative food intake data was then transposed into GraphPad Prism (v8.0.1) for analysis of dark period feeding

[3] = molecular target: T2, rat amylin receptor (calcitonin receptor co-expressed with receptor activity modifying protein, RAMP3) (Rat AMYR3) (Rattus norvegicus, UniProt P32214+Q9JJ73); assay: cAMP production in HEK cells with stable recombinant expression of rat amylin receptor (Rat AMYR3); assay type: cell-based; conditions: assay buffer with 0.1% BSA
T2 construct: expressed in transfected cells
T2 sequence (P32214 25-516): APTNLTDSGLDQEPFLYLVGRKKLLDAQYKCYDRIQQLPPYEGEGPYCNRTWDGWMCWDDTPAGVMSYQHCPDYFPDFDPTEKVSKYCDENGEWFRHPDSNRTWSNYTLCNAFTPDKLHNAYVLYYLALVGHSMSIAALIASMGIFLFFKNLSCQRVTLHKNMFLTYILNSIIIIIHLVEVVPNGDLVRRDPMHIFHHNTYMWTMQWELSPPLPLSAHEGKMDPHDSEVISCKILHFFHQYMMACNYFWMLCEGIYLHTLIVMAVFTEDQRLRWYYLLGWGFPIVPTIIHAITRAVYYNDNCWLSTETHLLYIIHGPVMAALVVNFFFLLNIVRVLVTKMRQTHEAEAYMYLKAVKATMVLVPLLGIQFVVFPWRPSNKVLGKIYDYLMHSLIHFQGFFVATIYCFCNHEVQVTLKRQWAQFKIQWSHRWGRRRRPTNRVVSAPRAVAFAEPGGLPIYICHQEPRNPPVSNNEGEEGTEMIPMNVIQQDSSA
T2 sequence (Q9JJ73 23-147 partner): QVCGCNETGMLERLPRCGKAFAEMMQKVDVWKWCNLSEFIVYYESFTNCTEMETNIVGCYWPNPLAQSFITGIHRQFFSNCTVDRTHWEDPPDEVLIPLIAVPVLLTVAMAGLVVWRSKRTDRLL
Protocol: (§2) The functional activities of lipidated pramlintide analogue peptides, such as cAMP production, were tested in 1321N1 cell line with stable recombinant expression of human calcitonin receptor (hCTR) or human amylin receptor (calcitonin receptor co-expressed with receptor activity modifying protein, RAMP3) (hAMYR3) or HEK cells with stable recombinant expression of rat calcitonin receptor (rat CTR) or rat amylin receptor (calcitonin receptor co-expressed with receptor activity modifying protein, RAMP3) (Rat AMYR3).
(§3) Cryopreserved cell stock was thawed rapidly in a water-bath, suspended in assay buffer (0.1% BSA (Sigma # A3059) in HBSS (Sigma # H8264) with 25 mM HEPES, pH 7.4 and containing 0.5 mM IB MX (Sigma# 17018)) and spun at 240×g for 5 minutes. Cells were re-suspended in assay buffer at a batch-dependent optimized concentration (e.g. hCTR cells at 0.125×10^5 cells/mL, hAMYR3 cells at 0.125×10^5 cells/mL, rat CTR cells at 1x10^5 cells/mL, rat AMYR3 at 2×10^5 cells/mL).
(§4) The test peptide stock was prepared in DMSO and diluted in assay buffer to reach stated concentrations and transferred in duplicates into a 384-black shallow well microtitre assay plate (Corning # 3676). Cells were added to the assay plate, incubated at room temperature for 30 minutes and the cAMP level measured using cAMP dynamic 2 HTRF kit (Cisbio, Cat # 62AM4PEJ), following the two step protocol as per manufacturer's recommendations. The plates were read on an Envision (Perkin Elmer) using excitation wavelength of 320 nm and emission wavelengths of 620nm & 665 nm.
(§5) Data was transformed to % Delta F as described in the manufacturer's guidelines and analyzed as percent activation of maximal amylin or calcitonin effect by 4-parameter logistic fit to determine EC50 values. The selectivity of a peptide to hAMYR vs hCTR is defined as a ratio of EC50 values at the two receptors.

[4] = molecular target: T3, human calcitonin receptor (hCTR) (Homo sapiens, UniProt P30988); assay: cAMP production in 1321N1 cells with stable recombinant expression of human calcitonin receptor (hCTR); assay type: cell-based; conditions: cAMP, 1321N1 cells, assay buffer with 0.1% BSA; read-out: EC50 (pM) hCTR
T3 construct: expressed in transfected cells
T3 sequence (P30988 25-474): T1 sequence (P30988 25-474)
In short: as §1

[5] = molecular target: T4, rat calcitonin receptor (rat CTR) (Rattus norvegicus, UniProt P32214); assay: cAMP production in HEK cells with stable recombinant expression of rat calcitonin receptor (rat CTR); assay type: cell-based; conditions: assay buffer with 0.1% BSA
T4 construct: expressed in transfected cells
T4 sequence (P32214 25-516): T2 sequence (P32214 25-516)
Protocol: as §2, §3, §4, §5

SMILES | Ratio (selectivity hAMYR vs hCTR, ratio of EC50 values at the two receptors) [1] | EC50 [1] | half-life ([2]; iv) | half-life ([2]; sc) | Cummulative food intake (% vehicle treated intake) At 12 h (lean rats) | Cummulative food intake (% vehicle treated intake) At 24 h (lean rats) | Cummulative food intake (% vehicle treated intake) At 48 h (lean rats) | EC50 [3] | EC50 [4] | EC50 [5]
CC[C@H](C)[C@H](NC(=O)[C@@H]1CCCN1C(=O)CNC(=O)[C@H](Cc1ccccc1)NC(=O)[C@H](CC(N)=O)NC(=O)C(C)(C)NC(=O)[C@H](CO)NC(=O)[C@H](CO)NC(=O)[C@H](Cc1c[nH]cn1)NC(=O)[C@@H](NC(=O)[C@H](CC(C)C)NC(=O)[C@H](Cc1ccccc1)NC(=O)[C@H](CCC(=O)O)NC(=O)[C@H](C)NC(=O)[C@H](CC(C)C)NC(=O)[C@H](CCCNC(=N)N)NC(=O)[C@H](CCC(N)=O)NC(=O)[C@@H](NC(=O)[C@H](C)NC(=O)[C@@H]1CSSC[C@H](NC(=O)[C@H](CCCCN)NC(=O)[C@@H](N)CCCCNC(=O)CC[C@H](NC(=O)CCCCCCCCCCCCCCCCC(=O)O)C(=O)O)C(=O)N[C@@H](CC(N)=O)C(=O)N[C@@H]([C@@H](C)O)C(=O)N[C@@H](C)C(=O)N[C@@H]([C@@H](C)O)C(=O)N1)[C@@H](C)O)C(C)C)C(=O)N[C@@H](CC(C)C)C(=O)N1CCC[C@H]1C(=O)N1CCC[C@H]1C(=O)N[C@H](C(=O)N[C@@H](CC(N)=O)C(=O)N[C@H](C(=O)NCC(=O)N[C@@H](CO)C(=O)N[C@@H](CC(N)=O)C(=O)N[C@H](C(=O)N[C@@H](Cc1ccc(O)cc1)C(N)=O)[C@@H](C)O)C(C)C)[C@@H](C)O [Peptide 38, K(γE-C18diacid)K[CNTATC]ATQRLAEFLVHSS(Aib)NFGPILPPTNVGSNTY-amide] (H-K([γGlu-C18 diacid])KCNTATCATQRLAEFLVHSS[Aib]NFGPILPPTNVGSNTY-NH2; disulfide 3-8; N-terminus assumed) | 6 | 190 pM | 6.6 h | 9 h | 6.9 % vehicle treated intake | 5.5 % vehicle treated intake | 13.7 % vehicle treated intake | 5.1 pM | 1050 pM | 20.3 pM
CC[C@H](C)[C@H](NC(=O)[C@@H]1CCCN1C(=O)CNC(=O)[C@H](Cc1ccccc1)NC(=O)[C@H](CC(N)=O)NC(=O)C(C)(C)NC(=O)[C@H](CO)NC(=O)[C@H](CO)NC(=O)[C@H](Cc1c[nH]cn1)NC(=O)[C@H](CCCNC(=N)N)NC(=O)[C@H](CC(C)C)NC(=O)[C@H](Cc1ccccc1)NC(=O)[C@H](CC(N)=O)NC(=O)[C@H](C)NC(=O)[C@H](CC(C)C)NC(=O)[C@H](CCCNC(=N)N)NC(=O)[C@H](CCC(N)=O)NC(=O)[C@@H](NC(=O)[C@H](C)NC(=O)[C@@H]1CSSC[C@H](NC(=O)[C@H](CCCCN)NC(=O)[C@@H](N)CCCCNC(=O)CC[C@H](NC(=O)CCCCCCCCCCCCCCCCC(=O)O)C(=O)O)C(=O)N[C@@H](CC(N)=O)C(=O)N[C@@H]([C@@H](C)O)C(=O)N[C@@H](C)C(=O)N[C@@H]([C@@H](C)O)C(=O)N1)[C@@H](C)O)C(=O)N[C@@H](CC(C)C)C(=O)N1CCC[C@H]1C(=O)N1CCC[C@H]1C(=O)N[C@H](C(=O)N[C@@H](CCC(=O)O)C(=O)N[C@H](C(=O)NCC(=O)N[C@@H](CO)C(=O)N[C@@H](CC(N)=O)C(=O)N[C@H](C(=O)N[C@@H](Cc1ccc(O)cc1)C(N)=O)[C@@H](C)O)C(C)C)[C@@H](C)O [Peptide 43, K(γE-C18diacid)K[CNTATC]ATQRLANFLRHSS(Aib)NFGPILPPTEVGSNTY-amide] (H-K([γGlu-C18 diacid])KCNTATCATQRLANFLRHSS[Aib]NFGPILPPTEVGSNTY-NH2; disulfide 3-8; N-terminus assumed) | 29 | 647 pM | 9.3 h | 10 h | 60.8 % vehicle treated intake | 55.6 % vehicle treated intake | 46.6 % vehicle treated intake | 14.5 pM | 19000 pM | 3650 pM
